Results on 14 compounds are retold here after ChEMBL document CHEMBL1201862, “PubChem BioAssay data set” (2004).

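Interpolation was linear, between the two tested concentrations surrounding the appropriate level; five concentrations were tested over 48 hours in 96-well plates. The concentration for 50% growth inhibition is given as GI50.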 Activity calls are given as the source filed them. Rule as the data show it: active = GI50 up to about 1.1 µM and inactive = higher. Some results are limits rather than exact numbers.

Among the test systems are 786-0; A498; ACHN; DLD-1; EKVX; HT-29; IGROV-1; NCI-H226; OVCAR-5; SK-MEL-2; SK-MEL-5; SNB-19; UACC-257; HCC 2998; HCT-15; RPMI-8226; Hs-578T; MCF7; MDA-MB-231; NCI/ADR-RES.
What all share (test): inhibition of tumour cell growth, NCI panel, 48 h

Turning to `N#Cc1ccccc1Sc1ccccc1N`, the GI50 is > 100 µM (inactive) in the assay on 786-0; > 100 µM (inactive) in the assay with A498; > 100 µM (inactive) in the assay with ACHN; 93.1 µM (inactive) in the assay on DLD-1; 77.1 µM (inactive) with EKVX; > 100 µM (inactive) with HT-29. The GI50 is 31.7 µM (inactive) in the assay on IGROV-1; 13 µM (inactive) with NCI-H226; 36.1 µM (inactive) in the assay with OVCAR-5; > 100 µM (inactive) in the assay with SK-MEL-2; 18.7 µM (inactive) with SK-MEL-5; > 100 µM (inactive) with SNB-19. The GI50 in the assay with UACC-257 was > 100 µM (inactive).
As for `FC(F)(F)C1(Cl)C(c2ccccc2)=C1c1ccccc1`, the GI50 in the assay on 786-0 was 17 µM (inactive); in the assay on ACHN, 16.6 µM (inactive); in the assay with DLD-1 it was 14.8 µM (inactive); in the assay with EKVX, 16.1 µM (inactive); with HCC 2998, 17.7 µM (inactive); in the assay with HCT-15 it was 14.3 µM. Moreover, the GI50 with HT-29 was 15.8 µM (inactive); in the assay with IGROV-1, 15.5 µM (inactive); in the assay on NCI-H226, 15.5 µM (inactive); with OVCAR-5 it was 17.4 µM (inactive); in the assay with RPMI-8226, 29.7 µM (inactive); with SK-MEL-2, 15 µM (inactive). In addition, the results for the GI50 with SK-MEL-5, in the assay with SNB-19 and in the assay with UACC-257 were 11.7 µM (inactive), 17.9 µM (inactive) and 14 µM (inactive), respectively.
`[N-]=[N+]=NC1(c2ccccc2)C(=O)C(Cl)=C(c2ccccc2)N(c2ccccc2)C1=O` (stereo not drawn): the GI50 in the assay with 786-0, in the assay on A498, in the assay with ACHN, in the assay with DLD-1, in the assay on EKVX and with HCC 2998 was > 100 µM (inactive) throughout. In addition, the GI50 is more than 100 µM with HCT-15; > 100 µM (inactive) in the assay on HT-29; > 100 µM (inactive) in the assay on IGROV-1; > 100 µM (inactive) in the assay on OVCAR-5; > 100 µM (inactive) in the assay with SK-MEL-2; > 100 µM (inactive) in the assay on SK-MEL-5. Also, the GI50 in the assay on SNB-19 and in the assay with UACC-257 was > 100 µM (inactive) in each case.
For the compound `CC(C)(C)NNC(=O)CCn1[nH]c(=O)c(Cl)c(Cl)c1=O`, the GI50 is > 100 µM (inactive) in the assay on 786-0; 10.7 µM (inactive) with A498; > 100 µM (inactive) in the assay with ACHN; > 100 µM (inactive) in the assay on DLD-1; > 100 µM (inactive) in the assay on EKVX; > 100 µM (inactive) in the assay with HCC 2998. Also, the GI50 is more than 100 µM with HCT-15; > 100 µM (inactive) in the assay on HT-29; > 100 µM (inactive) with IGROV-1; > 100 µM (inactive) in the assay on NCI-H226; > 100 µM (inactive) in the assay with OVCAR-5; > 100 µM (inactive) with RPMI-8226. In addition, the GI50 with SK-MEL-2, in the assay with SNB-19 and with UACC-257 was > 100 µM (inactive) throughout.
For the compound `COc1cc2c(cc1OC)-c1c3cc(O)ccc3nn[n+]1CC2`, the GI50 in the assay with 786-0, with DLD-1, in the assay with EKVX, in the assay on HCC 2998, with HT-29 and with IGROV-1 was > 100 µM (inactive) throughout. The GI50 in the assay with NCI-H226, in the assay on RPMI-8226, in the assay on SK-MEL-5 and in the assay on SNB-19 was > 100 µM (inactive) in each case.
`O=C1NC2(CCCC2)C(=O)C12CCCC2`: the GI50 with 786-0 was > 100 µM (inactive); in the assay with A498 it was > 100 µM (inactive); with ACHN it was > 100 µM (inactive); with DLD-1, > 100 µM (inactive); in the assay on EKVX it was > 100 µM (inactive); with HCT-15 it was more than 100 µM. Also, the GI50 in the assay on HT-29, in the assay on IGROV-1, with OVCAR-5, in the assay on RPMI-8226, in the assay on SK-MEL-2 and in the assay on SK-MEL-5 was > 100 µM (inactive) throughout. Also, the GI50 with SNB-19 and in the assay with UACC-257 was > 100 µM (inactive) each time.
On to `C#CCOCn1cnc2ncnc(N)c21`, for which the GI50 in the assay with 786-0, in the assay with A498, with ACHN, with DLD-1, in the assay on EKVX and with HCC 2998 was > 100 µM (inactive) each time. Further, the GI50 in the assay on HT-29, in the assay on IGROV-1, in the assay with NCI-H226, with OVCAR-5, with RPMI-8226 and with SK-MEL-2 was > 100 µM (inactive) each time. For the same compound, the GI50 in the assay on SK-MEL-5, in the assay with SNB-19 and in the assay with UACC-257 was > 100 µM (inactive) each time.
As to `CC(=O)N(C)OC(=O)CC(=O)c1ccccc1`, the GI50 with 786-0, with ACHN, in the assay with DLD-1, in the assay on HCC 2998, in the assay on HT-29 and in the assay on IGROV-1 was > 100 µM (inactive) in each case. Also, the GI50 in the assay with NCI-H226, with OVCAR-5, with RPMI-8226, with SK-MEL-5, in the assay with SNB-19 and in the assay with UACC-257 was > 100 µM (inactive) each time.
Turning to `N[C@H](C(=O)O)[C@H](Cl)CC(=O)O`, the GI50 in the assay on 786-0, in the assay with A498, with ACHN, with DLD-1, with EKVX and in the assay with HCC 2998 was > 100 µM (inactive) throughout. Further, the GI50 in the assay with HCT-15 was more than 100 µM; in the assay on HT-29, > 100 µM (inactive); in the assay with IGROV-1 it was > 100 µM (inactive); in the assay on NCI-H226, > 100 µM (inactive); in the assay on OVCAR-5, > 100 µM (inactive); with SK-MEL-2, > 100 µM (inactive). Further, the GI50 in the assay with SK-MEL-5, in the assay with SNB-19 and in the assay with UACC-257 was > 100 µM (inactive) throughout.
On to `CC1=C2CCCC2=C/C(=N/Nc2ccc([N+](=O)[O-])cc2[N+](=O)[O-])CC1`, for which the GI50 in the assay on 786-0, with ACHN, in the assay on DLD-1, in the assay with EKVX, in the assay with HT-29 and in the assay with IGROV-1 was > 100 µM (inactive) each time. Also, the GI50 in the assay with NCI-H226 is > 100 µM (inactive); with OVCAR-5, > 100 µM (inactive); with RPMI-8226 it was > 100 µM (inactive); with SK-MEL-2 it was 27.9 µM (inactive); in the assay on SK-MEL-5, > 100 µM (inactive); with SNB-19, > 100 µM (inactive). Also, the GI50 with UACC-257 was > 100 µM (inactive).
With `O=C(CCc1n[nH]c(=S)o1)Nc1ccc(Cl)cc1Cl`, the GI50 in the assay on 786-0, in the assay with A498, in the assay with ACHN, in the assay with DLD-1, in the assay on EKVX and in the assay with HCC 2998 was > 100 µM (inactive) in each case. The GI50 in the assay on HCT-15 is 20.9 µM; with HT-29, 34.3 µM (inactive); with IGROV-1 it was > 100 µM (inactive); in the assay with NCI-H226, > 100 µM (inactive); in the assay with OVCAR-5, > 100 µM (inactive); with RPMI-8226 it was 16.9 µM (inactive). In addition, the GI50 in the assay with SK-MEL-5, in the assay on SNB-19 and with UACC-257 was > 100 µM (inactive) in each case.
In the case of `CN(C(=O)/C=C/c1ccccc1)C1C2CN3CCC(O2)C13` (stereo not drawn), the GI50 in the assay with 786-0, in the assay with A498, with ACHN, in the assay on DLD-1, in the assay on EKVX and with HCC 2998 was > 100 µM (inactive) throughout. Further, the GI50 is more than 100 µM in the assay with HCT-15; > 100 µM (inactive) in the assay with HT-29; > 100 µM (inactive) in the assay with IGROV-1; > 100 µM (inactive) in the assay with NCI-H226; > 100 µM (inactive) in the assay with OVCAR-5; > 100 µM (inactive) in the assay with SK-MEL-2. In addition, the GI50 with SK-MEL-5, in the assay with SNB-19 and with UACC-257 was > 100 µM (inactive) each time.
`COc1cc2c(c(OC)c1OC)-c1ccc(SC)c(=O)cc1[C@@H](NC(=O)c1ccc(OC(C)=O)cc1)CC2`: the GI50 was 0.0409 µM (active) with 786-0; 0.0227 µM (active) in the assay on A498; 0.0342 µM (active) with ACHN; 0.0323 µM (active) in the assay on DLD-1; 0.0139 µM (active) in the assay on EKVX; 0.0218 µM (active) in the assay with HCC 2998. The GI50 with HCT-15 was 0.0229 µM; with HT-29 it was 0.0248 µM (active); with IGROV-1 it was 0.0319 µM (active); with NCI-H226 it was 0.0231 µM (active); with OVCAR-5, 24.7 µM (inactive); in the assay on RPMI-8226, 0.0327 µM (active). For the same compound, the GI50 with UACC-257 was 0.0349 µM (active).
Turning to `COc1ccc(C(=O)O[C@H]2CC[C@@]3(C)[C@@H]4CC[C@H]5[C@]6(O)C[C@H](O)[C@@]7(O)[C@@H](CN8C[C@@H](C)CC[C@H]8[C@@]7(C)O)[C@]6(O)C[C@@]53OC24O)cc1OC` [VERATRIDINE], the GI50 with 786-0 was > 100 µM (inactive); in the assay with A498, > 100 µM (inactive); in the assay on ACHN, > 100 µM (inactive); with EKVX, > 100 µM (inactive); in the assay on HCC 2998, 46.1 µM (inactive); with HCT-15, more than 100 µM. For the same compound, the GI50 in the assay with HT-29 was 60.1 µM (inactive); with Hs-578T, > 100 µM (inactive); in the assay on IGROV-1 it was > 100 µM (inactive); in the assay on MCF7, > 100 µM (inactive); in the assay on MDA-MB-231 it was > 100 µM (inactive); in the assay with NCI-H226, 44.3 µM (inactive). Further, the GI50 in the assay with NCI/ADR-RES is > 100 µM (inactive); with OVCAR-5 it was > 100 µM (inactive); in the assay on RPMI-8226, 80.4 µM (inactive); with SK-MEL-2, > 100 µM (inactive); with SK-MEL-5 it was > 100 µM (inactive); in the assay on SNB-19, > 100 µM (inactive). Moreover, in the assay on UACC-257, the GI50 is 71.3 µM (inactive).
